In brackets after ≈: the same amount, converted by molar mass. Where two headings read alike, the source gives them in different places.
Legend:
MRSA ATCC 43300 = system: MRSA ATCC 43300
Method: (§1) A positive control of a row of just the bacteria and a negative control of only the medium were included for every plate tested.
(§2) The compounds along with standard antibiotics were serially diluted 2-fold across the 96-well plates. […] A sample of each culture was then diluted 40-fold in fresh MH broth (in presence and absence of Tween) and incubated at 37°C for 2 to 3 h.
For experiments in the presence of surfactant, 2% beractant (25 mg/ml) was added to the mid-log-phase cultures and mixed gently and added to all the 96-well plates. For experiments in the presence of serum, a mixture of 50% of human serum along with 50% MHB was prepared and used throughout the experiment.

S. pyogenes ATCC 12344 = conditions: n = 2
Method: as §1, §2

MRSA = conditions: literature value; cited from earlier work
Excerpt: TABLE 1 Literature MIC values for tested antibiotics | column: MIC (µg/ml) (reference[s]) / MRSA

[1] = literature values, reference given; cited from earlier work
Excerpt: Other assay additives can affect MIC values. […] Plasma protein binding has been implicated as a major factor limiting the active free concentration of many clinically important antibiotics ([37][–][42]).

[2] = system: S. aureus GISA NRS 2; ATCC 700698; experiment: microbe, parasite or virus in culture; conditions: n = 2
Method: as §1, §2

[3] = system: MSSA S. aureus ATCC 25923; experiment: microbe, parasite or virus in culture; conditions: n = 2
Method: as §1, §2

[4] = system: S. pneumoniae ATCC 700677 (MDR); experiment: microbe, parasite or virus in culture; conditions: n = 2
Method: as §1, §2

S. pneumoniae ATCC 33440 = experiment: microbe, parasite or virus in culture; conditions: n = 2
Method: as §1, §2

E. faecalis ATCC 29212 = experiment: microbe, parasite or virus in culture; conditions: n = 2
Method: as §1, §2

[5] = Corning flat NBS plate, MHB +0.002% T80, no further additive, n = 2
[6] = Corning flat PS plate, MHB −T80, no additive, n = 2

CNC(=O)[C@H](CCCCNC(=O)[C@H]1NC(=O)[C@H]2NC(=O)[C@H](NC(=O)[C@@H]3NC(=O)[C@H](CC(N)=O)NC(=O)[C@H](NC(=O)[C@@H](CC(C)C)NC)[C@H](O)c4ccc(c(Cl)c4)Oc4cc3cc(c4O[C@@H]3O[C@H](CO)[C@@H](O)[C@H](O)[C@H]3O[C@H]3C[C@](C)(N)[C@H](O)[C@H](C)O3)Oc3ccc(cc3Cl)[C@H]2O)c2ccc(O)c(c2)-c2c(O)cc(O)cc21)NC(=O)[C@H](CCCCN)NC(=O)[C@H](CCCCN)NC(=O)[C@H](CCCCNC(=O)c1ccc(Oc2ccccc2)cc1)NC(=O)c1ccc(Oc2ccccc2)cc1 [MCC310]
MIC (MRSA ATCC 43300; [5]): 0.007 µg/mL (≈ 0.00296 µM)
MIC (MRSA ATCC 43300; [6]): 4 µg/mL (≈ 1.69 µM)

CN[C@H](CC(C)C)C(=O)N[C@H]1C(=O)N[C@@H](CC(N)=O)C(=O)N[C@H]2C(=O)N[C@H]3C(=O)N[C@H](C(=O)N[C@H](C(=O)O)c4cc(O)cc(O)c4-c4cc3ccc4O)[C@H](O)c3ccc(c(Cl)c3)Oc3cc2cc(c3O[C@@H]2O[C@H](CO)[C@@H](O)[C@H](O)[C@H]2O[C@H]2C[C@](C)(N)[C@H](O)[C@H](C)O2)Oc2ccc(cc2Cl)[C@H]1O [Vancomycin, vancomycin]
MIC (MRSA ATCC 43300; Corning NBS, MH + 2% LHB, 2% LS, n = 2): 0.5 to 1 µg/mL
MIC (MRSA ATCC 43300; Corning NBS, MH + 2% LHB, 50% HS, n = 2): 0.5 to 1 µg/mL
MIC (MRSA ATCC 43300; Corning NBS, MH + 2% LHB, no additive, n = 2): 1 µg/mL
MIC (MRSA ATCC 43300; Corning NBS, MH + T80, 2% LS, n = 2): 0.25 to 0.5 µg/mL
MIC (MRSA ATCC 43300; Corning NBS, MH + T80, 50% HS, n = 2): 1 µg/mL
MIC (MRSA ATCC 43300; Corning NBS, MH, 2% LS, n = 2): 0.5 µg/mL (≈ 0.345 µM)
MIC (MRSA ATCC 43300; Corning NBS, MH, 50% HS, n = 2): 0.25 to 0.5 µg/mL
MIC (MRSA ATCC 43300; Corning PS, MH + 2% LHB, 2% LS, n = 2): 0.5 to 1 µg/mL
MIC (MRSA ATCC 43300; Corning PS, MH + 2% LHB, 50% HS, n = 2): 0.5 to 1 µg/mL
MIC (MRSA ATCC 43300; Corning PS, MH + 2% LHB, no additive, n = 2): 1 µg/mL
MIC (MRSA ATCC 43300; Corning PS, MH + T80, 2% LS, n = 2): 0.5 to 2 µg/mL
MIC (MRSA ATCC 43300; Corning PS, MH + T80, 50% HS, n = 2): 0.5 µg/mL
MIC (MRSA ATCC 43300; Corning PS, MH, 2% LS, n = 2): 0.5 to 1 µg/mL
MIC (MRSA ATCC 43300; Corning PS, MH, 50% HS, n = 2): 0.25 to 0.5 µg/mL
MIC (MRSA ATCC 43300; Corning TC, MH + 2% LHB, 2% LS, n = 2): 0.5 to 1 µg/mL
MIC (MRSA ATCC 43300; Corning TC, MH + 2% LHB, 50% HS, n = 2): 0.5 µg/mL
MIC (MRSA ATCC 43300; Corning TC, MH + 2% LHB, no additive, n = 2): 0.5 µg/mL
MIC (MRSA ATCC 43300; Corning TC, MH + T80, 2% LS, n = 2): 0.5 µg/mL
MIC (MRSA ATCC 43300; Corning TC, MH + T80, 50% HS, n = 2): 0.5 to 1 µg/mL
MIC (MRSA ATCC 43300; Corning TC, MH, 2% LS, n = 2): 0.25 to 1 µg/mL
MIC (MRSA ATCC 43300; Corning TC, MH, 50% HS, n = 2): 0.25 to 0.5 µg/mL
MIC (MRSA ATCC 43300; [5]): 1 µg/mL (≈ 0.69 µM)
MIC (MRSA ATCC 43300; Corning flat NBS plate, MHB −T80, no additive, n = 2): 0.5 µg/mL (≈ 0.345 µM)
MIC (MRSA ATCC 43300; Corning flat PS plate, MHB +0.002% T80, no further additive, n = 2): 1 to 2 µg/mL
MIC (MRSA ATCC 43300; [6]): 0.5 µg/mL (≈ 0.345 µM)
MIC (MRSA ATCC 43300; Corning flat TC plate, MHB +0.002% T80, no further additive, n = 2): 1 µg/mL (≈ 0.69 µM)
MIC (MRSA ATCC 43300; Corning flat TC plate, MHB −T80, no additive, n = 2): 0.5 µg/mL (≈ 0.345 µM)
MIC (MRSA ATCC 43300; Nunc U TC plate, MHB +0.002% T80, n = 2): 1 µg/mL (≈ 0.69 µM)
MIC (MRSA ATCC 43300; Nunc U TC plate, MHB −T80, n = 2): 0.5 µg/mL (≈ 0.345 µM)
MIC (MRSA ATCC 43300; Nunc flat PS plate, MHB +0.002% T80, n = 2): 1 µg/mL (≈ 0.69 µM)
MIC (MRSA ATCC 43300; Nunc flat PS plate, MHB −T80, n = 2): 1 µg/mL (≈ 0.69 µM)
MIC (MRSA ATCC 43300; Nunc flat TC plate, MHB +0.002% T80, n = 2): 1 µg/mL (≈ 0.69 µM)
MIC (MRSA ATCC 43300; Nunc flat TC plate, MHB −T80, n = 2): 1 to 2 µg/mL
MIC (MRSA ATCC 43300; Trek PS, MH + 2% LHB, 2% LS, n = 2): 0.25 to 0.5 µg/mL
MIC (MRSA ATCC 43300; Trek PS, MH + 2% LHB, 50% HS, n = 2): 0.5 µg/mL
MIC (MRSA ATCC 43300; Trek PS, MH + 2% LHB, no additive, n = 2): 0.25 µg/mL
MIC (MRSA ATCC 43300; Trek PS, MH + T80, 2% LS, n = 2): 0.06 to 1 µg/mL
MIC (MRSA ATCC 43300; Trek PS, MH + T80, 50% HS, n = 2): 0.25 to 0.5 µg/mL
MIC (MRSA ATCC 43300; Trek PS, MH, 2% LS, n = 2): 0.03 µg/mL (≈ 0.0207 µM)
MIC (MRSA ATCC 43300; Trek PS, MH, 50% HS, n = 2): 0.25 µg/mL (≈ 0.173 µM)
MIC (MRSA ATCC 43300; Trek flat PS plate, MHB +0.002% T80, no further additive, n = 2): 1 µg/mL (≈ 0.69 µM)
MIC (MRSA ATCC 43300; Trek flat PS plate, MHB −T80, no additive, n = 2): 0.5 to 1 µg/mL
MIC (MRSA ATCC 43300; regardless of plate type or addition of T80): around 1 µg/ml
MIC (S. pyogenes ATCC 12344; Corning NBS, MHB +T80): 0.125 to 0.25 µg/mL
MIC (S. pyogenes ATCC 12344; Corning NBS, MHB -T80): 0.125 to 0.25 µg/mL
MIC (S. pyogenes ATCC 12344; Corning PS, MHB +T80): 0.125 µg/mL (≈ 0.0863 µM)
MIC (S. pyogenes ATCC 12344; Corning PS, MHB -T80): 0.125 µg/mL (≈ 0.0863 µM)
MIC (S. pyogenes ATCC 12344; Corning TC, MHB +T80): 0.125 to 0.25 µg/mL
MIC (S. pyogenes ATCC 12344; Corning TC, MHB -T80): 0.125 µg/mL (≈ 0.0863 µM)
MIC (literature) (MRSA): 2 ([62]) µg/ml
protein binding [1]: 55%
MIC ([2]; Corning NBS, MHB +T80): 0.5 to 1 µg/mL
MIC ([2]; Corning NBS, MHB -T80): 0.5 µg/mL (≈ 0.345 µM)
MIC ([2]; Corning PS, MHB +T80): 0.5 to 1 µg/mL
MIC ([2]; Corning PS, MHB -T80): 0.5 to 1 µg/mL
MIC ([2]; Corning TC, MHB +T80): 0.5 µg/mL (≈ 0.345 µM)
MIC ([2]; Corning TC, MHB -T80): 0.5 to 1 µg/mL
MIC ([3]; Corning NBS, MHB +T80): 1 to 2 µg/mL
MIC ([3]; Corning NBS, MHB -T80): 0.5 to 1 µg/mL
MIC ([3]; Corning PS, MHB +T80): 1 to 2 µg/mL
MIC ([3]; Corning PS, MHB -T80): 0.5 to 1 µg/mL
MIC ([3]; Corning TC, MHB +T80): 1 µg/mL (≈ 0.69 µM)
MIC ([3]; Corning TC, MHB -T80): 0.5 to 1 µg/mL
MIC ([4]; Corning NBS, MHB +T80): 1 to 2 µg/mL
MIC ([4]; Corning NBS, MHB -T80): 0.5 µg/mL (≈ 0.345 µM)
MIC ([4]; Corning PS, MHB +T80): 1 µg/mL (≈ 0.69 µM)
MIC ([4]; Corning PS, MHB -T80): 1 µg/mL (≈ 0.69 µM)
MIC ([4]; Corning TC, MHB +T80): 0.5 to 1 µg/mL
MIC ([4]; Corning TC, MHB -T80): 1 µg/mL (≈ 0.69 µM)
MIC (S. pneumoniae ATCC 33440; Corning NBS, MHB +T80): 0.5 to 1 µg/mL
MIC (S. pneumoniae ATCC 33440; Corning NBS, MHB -T80): 0.5 to 1 µg/mL
MIC (S. pneumoniae ATCC 33440; Corning PS, MHB +T80): 1 µg/mL (≈ 0.69 µM)
MIC (S. pneumoniae ATCC 33440; Corning PS, MHB -T80): 1 µg/mL (≈ 0.69 µM)
MIC (S. pneumoniae ATCC 33440; Corning TC, MHB +T80): 1 µg/mL (≈ 0.69 µM)
MIC (S. pneumoniae ATCC 33440; Corning TC, MHB -T80): 0.5 to 1 µg/mL
MIC (E. faecalis ATCC 29212; Corning NBS, MHB +T80): 1 µg/mL (≈ 0.69 µM)
MIC (E. faecalis ATCC 29212; Corning NBS, MHB -T80): 1 to 2 µg/mL
MIC (E. faecalis ATCC 29212; Corning PS, MHB +T80): 1 µg/mL (≈ 0.69 µM)
MIC (E. faecalis ATCC 29212; Corning PS, MHB -T80): 1 µg/mL (≈ 0.69 µM)
MIC (E. faecalis ATCC 29212; Corning TC, MHB +T80): 1 µg/mL (≈ 0.69 µM)
MIC (E. faecalis ATCC 29212; Corning TC, MHB -T80): 1 to 2 µg/mL

CC(=O)NC[C@H]1CN(c2ccc(N3CCOCC3)c(F)c2)C(=O)O1 [linezolid]
protein binding [1]: 31%

C[C@@H](O)[C@H]1C(=O)N2C(C(=O)O)=C(S[C@@H]3CN[C@H](C(=O)N(C)C)C3)[C@H](C)[C@H]12 [meropenem]
protein binding [1]: 2%

daptomycin
protein binding [1]: 92%

From paper PMC6325200, “Effects of Microplate Type and Broth Additives on Microdilution MIC Susceptibility Assays” (Antimicrobial Agents and Chemotherapy, 2018)
